Laboratory results: patent US6737383B1, “Herbicidal oxadiazolidines” (priority 1999, dated 2004)

Columns and labels:
[1] = system: bedstraw; assay: Test B pre/postemergence bedstraw; assay type: in vivo, Galium aparine
How it was run: (§1)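 Herbicidal effect was estimated by eye on a ten-point control scale after plants spent twelve to sixteen days in a greenhouse following soil or foliar treatment. Foliar sprays targeted plants at one to four leaves; all doses were formulated in a non-phytotoxic solvent with surfactant.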

[2] = system: blackgrass; assay: Test B pre/postemergence blackgrass; assay type: in vivo, Alopecurus myosuroides
How it was run: as §1

[3] = system: surinam grass; assay: Test B pre/postemergence surinam grass; assay type: in vivo, Brachiaria decumbens
How it was run: as §1

[4] = system: cocklebur; assay: Test B pre/postemergence cocklebur; assay type: in vivo, Xanthium strumarium
How it was run: as §1

[5] = system: corn; assay: Test B pre/postemergence corn; assay type: in vivo, Zea mays
How it was run: as §1

[6] = system: crabgrass; assay: Test B pre/postemergence crabgrass; assay type: in vivo, Digitaria sanguinalis
How it was run: as §1

[7] = system: pigweed; assay: Test B pre/postemergence pigweed; assay type: in vivo, Amaranthus retroflexus
How it was run: as §1

[8] = system: rape; assay: Test B pre/postemergence rape; assay type: in vivo, Brassica napus
How it was run: as §1

[9] = system: soybean; assay: Test B pre/postemergence soybean; assay type: in vivo, Glycine max
How it was run: as §1

[10] = system: sugar beet; assay: Test B pre/postemergence sugar beet; assay type: in vivo, Beta vulgaris
How it was run: as §1

[11] = system: velvetleaf; assay: Test B pre/postemergence velvetleaf; assay type: in vivo, Abutilon theophrasti
How it was run: as §1

[12] = system: wheat; assay: Test B pre/postemergence wheat; assay type: in vivo, Triticum aestivum
How it was run: as §1

[13] = system: wild oat; assay: Test B pre/postemergence wild oat; assay type: in vivo, Avena fatua
How it was run: as §1

[14] = system: purple nutsedge; assay: Test B pre/postemergence purple nutsedge; assay type: in vivo, Cyperus rotundus
How it was run: as §1

[15] = system: smallflower flatsedge; assay: Test B flood test smallflower flatsedge; assay type: in vivo, Cyperus difformis
How it was run: (§2)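 Flood test on plants grown to the 2-leaf stage; treated plants kept in greenhouse twelve to sixteen days, then visually rated against controls on a 0 (no effect) to 10 (complete control) scale.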

[16] = system: bamyardgrass; assay: Test B flood test barnyardgrass; assay type: in vivo, Echinochloa crus-galli
How it was run: as §2

[17] = Postemergence, Rate 62 g/ha, scale 0 to 10, 0 is no effect, 10 is complete control
[18] = Postemergence, Rate 250 g/ha, scale of 0 to 10, 0 is no effect, 10 is complete control
[19] = Preemergence, Rate 250 g/ha, scale 0 to 10 (0 no effect, 10 complete control)
[20] = Preemergence, Rate 500 g/ha, scale of 0 to 10 where 0 is no effect and 10 is complete control
[21] = Postemergence, Rate 125 g/ha, scale of 0 to 10 where 0 is no effect and 10 is complete control
[22] = Postemergence, Rate 500 g/ha, scale of 0 to 10 where 0 is no effect and 10 is complete control
[23] = Preemergence, Rate 62 g/ha, scale 0 to 10 (0 no effect, 10 complete control)
[24] = Preemergence, Rate 125 g/ha, scale of 0 to 10 where 0 is no effect and 10 is complete control
[25] = Rate 62 g/ha, flood test species, Pre-emergence, visual evaluation after twelve to sixteen days
[26] = Rate 125 g/ha, under heading Pre-emergence, flood test species, visual evaluation after twelve to sixteen days
[27] = Rate 250 g/ha, Pre-emergence (flood test species), scale 0 to 10, 0 is no effect, 10 is complete control
[28] = Rate 500 g/ha, Pre-emergence section of Table B, 0 to 10 scale (0 no effect, 10 complete control)

Structure (SMILES): CC(C)N(C(=O)n1oc(=O)n(CNC(=O)c2ccccc2)c1=O)c1ccc(F)cc1F [Compound 619]
- Plant response rating, Bedstraw [1, 17]: 0
- Bedstraw plant response rating [1, 18]: 0
- Plant response rating, Bedstraw [1, 19]: 0
- Bedstraw plant response rating [1, 20]: 0
- Plant response rating, Blackgrass [2, 17]: 0
- Plant response rating, Blackgrass [2, 21]: 0
- Blackgrass plant response rating [2, 18]: 0
- Plant response rating, Blackgrass [2, 22]: 0
- Blackgrass plant response rating [2, 23]: 0
- Blackgrass plant response rating [2, 24]: 0
- Plant response rating, Blackgrass [2, 19]: 0
- Blackgrass plant response rating [2, 20]: 0
- Plant response rating, B. signalgrass [3, 17]: 0
- Plant response rating, B. signalgrass [3, 21]: 0
- B. signalgrass plant response rating [3, 18]: 0
- Plant response rating, B. signalgrass [3, 22]: 2
- B. signalgrass plant response rating [3, 23]: 0
- B. signalgrass plant response rating [3, 24]: 0
- Plant response rating, B. signalgrass [3, 19]: 0
- B. signalgrass plant response rating [3, 20]: 3
- Plant response rating, Cocklebur [4, 17]: 0
- Plant response rating, Cocklebur [4, 21]: 0
- Cocklebur plant response rating [4, 18]: 0
- Plant response rating, Cocklebur [4, 22]: 0
- Cocklebur plant response rating [4, 23]: 0
- Cocklebur plant response rating [4, 24]: 0
- Plant response rating, Cocklebur [4, 19]: 0
- Plant response rating, Cocklebur [4, 20]: 0
- Plant response rating, Corn [5, 17]: 0
- Plant response rating, Corn [5, 21]: 0
- Corn plant response rating [5, 18]: 0
- Plant response rating, Corn [5, 22]: 0
- Corn plant response rating [5, 23]: 0
- Corn plant response rating [5, 24]: 0
- Plant response rating, Corn [5, 19]: 0
- Plant response rating, Corn [5, 20]: 2
- Plant response rating, Crabgrass [6, 17]: 0
- Plant response rating, Crabgrass [6, 21]: 0
- Crabgrass plant response rating [6, 18]: 0
- Plant response rating, Crabgrass [6, 22]: 2
- Crabgrass plant response rating [6, 23]: 0
- Crabgrass plant response rating [6, 24]: 1
- Plant response rating, Crabgrass [6, 19]: 6
- Plant response rating, Crabgrass [6, 20]: 8
- Plant response rating, Redroot pigweed [7, 17]: 0
- Plant response rating, Redroot pigweed [7, 21]: 0
- Redroot pigweed plant response rating [7, 18]: 1
- Redroot pigweed plant response rating [7, 23]: 0
- Redroot pigweed plant response rating [7, 24]: 0
- Plant response rating, Redroot pigweed [7, 19]: 0
- Plant response rating, Redroot pigweed [7, 20]: 0
- Plant response rating, Rape [8, 17]: 0
- Plant response rating, Rape [8, 21]: 0
- Rape plant response rating [8, 18]: 0
- Plant response rating, Rape [8, 22]: 3
- Rape plant response rating [8, 23]: 0
- Rape plant response rating [8, 24]: 0
- Plant response rating, Rape [8, 19]: 0
- Plant response rating, Rape [8, 20]: 0
- Plant response rating, Soybean [9, 17]: 1
- Plant response rating, Soybean [9, 21]: 1
- Soybean plant response rating [9, 18]: 1
- Soybean plant response rating [9, 23]: 0
- Soybean plant response rating [9, 24]: 0
- Plant response rating, Soybean [9, 19]: 0
- Plant response rating, Soybean [9, 20]: 0
- Plant response rating, Sugarbeets [10, 17]: 0
- Plant response rating, Sugarbeets [10, 21]: 0
- Sugarbeets plant response rating [10, 18]: 0
- Sugarbeets plant response rating [10, 23]: 0
- Sugarbeets plant response rating [10, 24]: 0
- Plant response rating, Sugarbeets [10, 19]: 0
- Plant response rating, Sugarbeets [10, 20]: 0
- Plant response rating, Velvetleaf [11, 17]: 0
- Plant response rating, Velvetleaf [11, 21]: 0
- Velvetleaf plant response rating [11, 18]: 2
- Velvetleaf plant response rating [11, 23]: 0
- Velvetleaf plant response rating [11, 24]: 0
- Plant response rating, Velvetleaf [11, 19]: 0
- Plant response rating, Velvetleaf [11, 20]: 4
- Plant response rating, Wheat [12, 17]: 0
- Plant response rating, Wheat [12, 21]: 0
- Wheat plant response rating [12, 18]: 0
- Wheat plant response rating [12, 23]: 0
- Wheat plant response rating [12, 24]: 0
- Plant response rating, Wheat [12, 19]: 0
- Plant response rating, Wheat [12, 20]: 0
- Plant response rating, Wild oats [13, 17]: 0
- Plant response rating, Wild oats [13, 21]: 0
- Wild oats plant response rating [13, 18]: 0
- Wild oats plant response rating [13, 23]: 0
- Wild oats plant response rating [13, 24]: 0
- Plant response rating, Wild oats [13, 19]: 0
- Plant response rating, Wild oats [13, 20]: 0
- Plant response rating, Nutsedge [14, 17]: 0
- Plant response rating, Nutsedge [14, 21]: 0
- Nutsedge plant response rating [14, 18]: 0
- Plant response rating, Nutsedge [14, 22]: 0
- Nutsedge plant response rating [14, 23]: 0
- Nutsedge plant response rating [14, 24]: 0
- Plant response rating, Nutsedge [14, 19]: 0
- Plant response rating, S. Flatsedge (0 to 10 scale, 0 is no effect, 10 is complete control) [15, 25]: 0
- S. Flatsedge plant response rating (0 to 10 scale, 0 is no effect, 10 is complete control) [15, 26]: 0
- S. Flatsedge plant response rating [15, 27]: 0
- S. Flatsedge plant response rating [15, 28]: 0
- Plant response rating, Barnyardgrass (0 to 10 scale, 0 is no effect, 10 is complete control) [16, 25]: 0
- Barnyardgrass plant response rating (0 to 10 scale, 0 is no effect, 10 is complete control) [16, 26]: 0
- Barnyardgrass plant response rating [16, 27]: 0
- Barnyardgrass plant response rating [16, 28]: 0
